From the supplement of paper PMC11451515

System: NOMO1
Assay: cell viability relative to DMSO control; higher = less cytotoxic
Conditions: 48 h
Summary of the method: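 Library compounds in DMSO were pin-dosed into 1536-well plates (5 μl) holding NOMO1 or SEM (500 cells/well) or P12-Ichikawa (1000 cells/well) leukemia cells, across an 11-point threefold series of 47 μM to 0.79 nM. Each cell line had been adapted for at least four passages in each medium. CellTiter-Glo One luminescence was read after 48 h at 37°C. Viability is the per-plate percentage relative to DMSO wells, with cell-free wells as background.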

[1] = HPLM + 10% dialyzed FBS, 0.000781 µM
[2] = HPLM + 10% dialyzed FBS, 0.00234 µM
[3] = HPLM + 10% dialyzed FBS, 0.00702 µM
[4] = HPLM + 10% dialyzed FBS, 0.0211 µM
[5] = HPLM + 10% dialyzed FBS, 0.0632 µM
[6] = HPLM + 10% dialyzed FBS, 0.19 µM
[7] = HPLM + 10% dialyzed FBS, 0.569 µM
[8] = HPLM + 10% dialyzed FBS, 1.71 µM
[9] = HPLM + 10% dialyzed FBS, 5.12 µM
[10] = HPLM + 10% dialyzed FBS, 15.4 µM
[11] = HPLM + 10% dialyzed FBS, 46.1 µM
[12] = RPMI 5 mM glucose + 10% FBS, 0.000781 µM
[13] = RPMI 5 mM glucose + 10% FBS, 0.00234 µM
[14] = RPMI 5 mM glucose + 10% FBS, 0.00702 µM
[15] = RPMI 5 mM glucose + 10% FBS, 0.0211 µM
[16] = RPMI 5 mM glucose + 10% FBS, 0.0632 µM
[17] = RPMI 5 mM glucose + 10% FBS, 0.19 µM
[18] = RPMI 5 mM glucose + 10% FBS, 0.569 µM
[19] = RPMI 5 mM glucose + 10% FBS, 1.71 µM
[20] = RPMI 5 mM glucose + 10% FBS, 5.12 µM
[21] = RPMI 5 mM glucose + 10% FBS, 15.4 µM
[22] = RPMI 5 mM glucose + 10% FBS, 46.1 µM
[23] = RPMI 5 mM glucose + 10% dialyzed FBS, 0.000781 µM
[24] = RPMI 5 mM glucose + 10% dialyzed FBS, 0.00234 µM
[25] = RPMI 5 mM glucose + 10% dialyzed FBS, 0.00702 µM
[26] = RPMI 5 mM glucose + 10% dialyzed FBS, 0.0211 µM
[27] = RPMI 5 mM glucose + 10% dialyzed FBS, 0.0632 µM
[28] = RPMI 5 mM glucose + 10% dialyzed FBS, 0.19 µM
[29] = RPMI 5 mM glucose + 10% dialyzed FBS, 0.569 µM
[30] = RPMI 5 mM glucose + 10% dialyzed FBS, 1.71 µM
[31] = RPMI 5 mM glucose + 10% dialyzed FBS, 5.12 µM
[32] = RPMI 5 mM glucose + 10% dialyzed FBS, 15.4 µM
[33] = RPMI 5 mM glucose + 10% dialyzed FBS, 46.1 µM

Compound | cell viability [1] [%] | cell viability [2] [%] | cell viability [3] [%] | cell viability [4] [%] | cell viability [5] [%] | cell viability [6] [%] | cell viability [7] [%] | cell viability [8] [%] | cell viability [9] [%] | cell viability [10] [%] | cell viability [11] [%] | cell viability [12] [%] | cell viability [13] [%] | cell viability [14] [%] | cell viability [15] [%] | cell viability [16] [%] | cell viability [17] [%] | cell viability [18] [%] | cell viability [19] [%] | cell viability [20] [%] | cell viability [21] [%] | cell viability [22] [%] | cell viability [23] [%] | cell viability [24] [%] | cell viability [25] [%] | cell viability [26] [%] | cell viability [27] [%] | cell viability [28] [%] | cell viability [29] [%] | cell viability [30] [%] | cell viability [31] [%] | cell viability [32] [%] | cell viability [33] [%]
CC(C)(C)NC(=O)[C@H]1CC[C@H]2[C@@H]3CC[C@H]4NC(=O)\C=C/[C@]4(C)[C@H]3CC[C@]12C | 76.6 | 94.6 | 109 | 108 | 107 | 99.8 | 112 | 84.3 | 27.2 | 26.8 | 27.4 | 101 | 95.7 | 102 | 96.5 | 96.6 | 111 | 109 | 71 | 20.9 | 18.7 | 14.5 | 95.8 | 105 | 100 | 107 | 107 | 108 | 115 | 102 | 26.3 | 25.2 | 18.8
CNCC(O)C(O)C(O)C(O)CO.O=C(O)c1ccc(-c2cc3cccnc3c(-c3ccc4nonc4c3)n2)cc1 | 105 | 110 | 115 | 111 | 121 | 126 | 112 | 122 | 112 | 110 | 76.7 | 118 | 119 | 119 | 118 | 115 | 112 | 125 | 106 | 117 | 119 | 102 | 99 | 105 | 124 | 120 | 114 | 111 | 127 | 111 | 111 | 118 | 74.4
Cc1ccc(-c2ncn(-c3ccc(Nc4nccc(-c5cccc(N6CCOCC6)c5)n4)cc3)n2)cn1 | 94.8 | 90.9 | 96.8 | 109 | 105 | 87.8 | 13.6 | 10.2 | 7.32 | 8.09 | 5.6 | 88.4 | 40 | 80.9 | 94.6 | 86.4 | 87.4 | 16.4 | 8.16 | 7.21 | 5.58 | 6.57 | 87.7 | 94.2 | 88.9 | 97.8 | 94.9 | 89.2 | 20.3 | 8.8 | 8.22 | 7.85 | 5.33
COC1=CC=C(C=C1)C2CC(=N/N2C3=CC=C(C=C3)[S+](N)([O-])=O)\C4=CC=CC=C4 (stereo not drawn) | 82.7 | 91.2 | 98.8 | 92.9 | 97.4 | 97.1 | 94.9 | 56.1 | 24.4 | 3.71 | 1.86 | 85.9 | 85.1 | 92.5 | 102 | 102 | 98.3 | 94.6 | 89.5 | 35.2 | 4.7 | 2.12 | 82.7 | 93.8 | 85.6 | 103 | 98 | 86.2 | 93.3 | 59 | 43.3 | 4.24 | 1.96
O=C(CCc1ccc(O)cc1)c1c(O)cc(O)cc1O[C@@H]1O[C@H](CO)[C@@H](O)[C@H](O)[C@H]1O | – | – | – | – | – | – | – | – | – | – | – | 82.5 | 80.8 | 81.7 | 77 | 92.1 | 86.1 | 82.4 | 78.1 | 85.4 | 75.1 | 84.8 | 104 | 96 | 115 | 105 | 115 | 106 | 50.2 | 73.1 | 85.1 | 53.1 | 81.2
CN[C@@H]1C[C@H]2O[C@@](C)([C@@H]1OC)n1c3ccccc3c3c4c(c5c6ccccc6n2c5c31)C(=O)N[C@H]4O | 81.2 | 101 | 93.1 | 78.2 | 96.8 | 56.4 | 48.8 | 35.4 | 22.7 | 18 | 3.31 | 76.2 | 87.6 | 81.4 | 82.7 | 84.6 | 69.4 | 64.7 | 19.6 | 14.8 | 12.7 | 3.97 | 79.9 | 84.5 | 85.9 | 90.5 | 95.9 | 85.5 | 65.5 | 31.6 | 16.9 | 14.7 | 3.79
Cc1cc(Cl)ccc1OCCCC(=O)NO | 106 | 117 | 107 | 94.8 | 110 | 122 | 117 | 112 | 103 | 67 | 33.5 | 93.5 | 112 | 93.2 | 112 | 113 | 96.9 | 106 | 107 | 94 | 52.3 | 15.9 | 105 | 121 | 101 | 114 | 99.5 | 104 | 119 | 114 | 117 | 73.4 | 31
CN[S+](=O)([O-])CCc1ccc2[nH]cc(C3CCN(C)CC3)c2c1 | 91.2 | 95.9 | 91.3 | 114 | 112 | 107 | 106 | 101 | 98.6 | 108 | 107 | 83 | 84.2 | 91.3 | 86.6 | 99.7 | 89.5 | 87.6 | 92.7 | 102 | 87.8 | 96.4 | 91.5 | 83.4 | 90.3 | 95.4 | 93.3 | 104 | 105 | 96.2 | 102 | 85.3 | 89.3
Cc1ccc(C(=O)c2cc(O)c(O)c([N+](=O)[O-])c2)cc1 | 91.5 | 104 | 98.2 | 100 | 116 | 101 | 115 | 89.5 | 80.7 | 83.2 | 86.4 | 90.3 | 86.4 | 83.6 | 90.6 | 96 | 83.7 | 90.9 | 81.7 | 94.6 | 87.3 | 92.2 | 100 | 98 | 79.4 | 92.1 | 99.6 | 105 | 108 | 94.3 | 81.8 | 88.4 | 103
O=C(CCCCCCC(=O)Nc1ccccc1)NO | 92.9 | 102 | 106 | 96.9 | 113 | 104 | 102 | 111 | 67.3 | 38.4 | 5.95 | 81.3 | 94 | 89.2 | 96.4 | 110 | 105 | 109 | 98.9 | 83.3 | 44 | 5 | 74.9 | 90.8 | 102 | 114 | 119 | 105 | 119 | 113 | 88.6 | 57.6 | 6.52
CO[C@H]1C[C@@H]2CC[C@@H](C)[C@@](O)(O2)C(=O)C(=O)N2CCCC[C@H]2C(=O)O[C@H]([C@H](C)C[C@@H]2CC[C@@H](OCCO)[C@H](OC)C2)CC(=O)[C@H](C)/C=C(/C)[C@@H](O)[C@@H](OC)C(=O)[C@H](C)C[C@H](C)\C=C/C=C\C=C/1C | 91.8 | 97.5 | 95.7 | 92.9 | 81.7 | 95.4 | 80.7 | 68.8 | 73.8 | 64.1 | 57.4 | 86.5 | 94.6 | 97.8 | 99.4 | 98.4 | 94.2 | 85.4 | 88 | 84.8 | 61.3 | 70.8 | 85 | 91.2 | 84.5 | 76.7 | 85 | 78.1 | 78.7 | 73.1 | 76.3 | 58.9 | 61.5
CCOC1=CC(=CC=C1C/2=N/[C@@](C)(C3=CC=C(Cl)C=C3)[C@](C)(N2C(=O)N4CCN(CC4)CC(=O)N5CCOCC5)C6=CC=C(Cl)C=C6)C(C)(C)C | – | – | – | – | – | – | – | – | – | – | – | 93.3 | 90.6 | 96.3 | 105 | 112 | 121 | 98.6 | 99.3 | 102 | 91.6 | 97 | 92.6 | 113 | 102 | 102 | 126 | 120 | 124 | 100 | 81.8 | 90.1 | 86.2
C[S+]([O-])c1ccc(-c2nc(-c3ccc(F)cc3)c(-c3ccncc3)[nH]2)cc1 (stereo not drawn) | 78.8 | 101 | 108 | 106 | 106 | 117 | 106 | 66.2 | 35.1 | 3.41 | 2.33 | 80 | 90.4 | 105 | 95 | 113 | 96.3 | 106 | 75.9 | 29.7 | 4.04 | 2.28 | 83.5 | 86.2 | 87.3 | 98.2 | 99.1 | 86.5 | 99.1 | 64.6 | 34.6 | 4.16 | 2.47
O=C1CCc2ccc(OCCCCN3CCN(c4cccc(Cl)c4Cl)CC3)cc2N1 | 115 | 98.6 | 119 | 77.7 | 96.1 | 109 | 89.2 | 91.6 | 106 | 107 | 85.1 | 91.2 | 91.7 | 94.7 | 86.6 | 92.9 | 89.5 | 96.6 | 97.2 | 81.6 | 93.6 | 77.6 | 106 | 83.6 | 97.7 | 75.2 | 96.1 | 93.6 | 91.5 | 98.1 | 91.1 | 97.5 | 78.7
COc1ccc(Nc2cc(-c3cnc(N)nc3)nc(N3CCOCC3)n2)cn1 | 105 | 105 | 84.5 | 97.2 | 83.3 | 87 | 76.6 | 79.9 | 54.7 | 46.8 | 39.6 | 82.6 | 90.2 | 88.2 | 84.4 | 83.4 | 88 | 78.4 | 84.8 | 60.5 | 65.4 | 52.7 | 86.8 | 91.8 | 85.3 | 88 | 91.6 | 76.8 | 71.3 | 75.1 | 56.4 | 56.8 | 44.5
